Experiment [1] deals with Staphylococcus aureus. The experiment in a line: Time needed to meet disinfection requirements, Staphylococcus aureus. The class given is cell-based. The note with it: concentration: ethanol 70%, benzalkonium bromide 1:1000, 1210 250 ppm, Embodiment 11 stock.
Experiment [2] deals with Pseudomonas auerginosa. The experiment in a line: Time needed to meet disinfection requirements, Pseudomonas aeruginosa. Format: cell-based. The following applies: concentration: ethanol 70%, 1210 500 ppm, Embodiment 11 stock.
Experiment [3] has as its system Escherichia coli. In words: Time needed to meet disinfection requirements, Escherichia coli. The class given is cell-based. The following applies: concentration: ethanol 70%, benzalkonium bromide 1:1000, 1210 250 ppm, Embodiment 11 stock.
The test system of experiment [4] is Candida albicans. The experiment in a line: Time needed to meet disinfection requirements, Candida albicans. The class given is cell-based. The note with it: concentration: ethanol 70%, iodophor 40 mg/L, Embodiment 11 stock.
Experiment [5] relates to Mycobacterium tuberculosis. The note with it: concentration: ethanol 70%.
The test system of experiment [6] is pathogenic bacteria. The note with it: general statement on antibacterial properties; cited from earlier work.

Here are results for three compounds from patent US10743543B2, “Botanical disinfection composition, disinfectant and preparation method thereof” (priority 2016, dated 2020).

For `CCO` [Ethanol], the “Time needed for meeting disinfection requirements” value in experiment [1] is on record as 5 min; in experiment [2] it was 1 min; in experiment [3], 0.5. min; in experiment [4] it was 1 min; in experiment [5], 5 min.
For Benzalkonium bromide, the “Time needed for meeting disinfection requirements” value in experiment [1] was 5 min; in experiment [3], 10 min.
As for `O=C(O)CCCCCCCC(=O)O` [Azelaic acid, azelaic acid], the bactericidal concentration in experiment [6] is 1 mol/L.
